From patent US20060035291A1, “Method of detecting cellular immunity and application thereof to drugs” (priority 2001, published 2006)
Read-outs that look alike come from different tables or passages of the source. Where no end group is shown, it is not given here.

Experiments:
cancer patients [1] = assay: Skin test for immediate and delayed type hypersensitivity in cancer patients; details: for immediate hypersensitivity reaction in skin test: human, in vivo; for type I allergy in skin tests during the course of vaccination: skin tests before the 9th and 17th dose (ART413, SART3315), 3rd pre-vaccination skin test (CypB91)
Experimental: For the skin test, 10 μg of 5 kinds of peptides was subcutaneously administered to each patient. Saline was used as the negative control. 20 minutes and 24 hours after injection, immediate and delayed type hypersensitivity (DHT) reactions were looked for. The skin test reaction was determined as positive if erythema and sclerosis were more than 10 mm in diameter. If the immediate hypersensitivity reaction was negative, a peptide was administered. Each peptide solution (3 mg/ml) was mixed with the same amount of IFA (Montanide ISA-51) and emulsified in a 5-mI plastic syringe, and 3 ml of the emulsion was subcutaneously administered to the lateral femoral region every two weeks. Serum PSA level was measured 4 weeks after vaccination. The time passed was defined as the time from the registration day to the date when the progress of the target disease was recorded. For patients who chose to discontinue the study without any progress of the target disease (e.g., increase in PSA) it was determined that the disease had progressed at the time the study was stopped.
When an immediate hypersensitivity reaction positive in the skin test of one of these peptides, that peptide was vaccinated if the fifth peptide of criteria A, B, or Z was negative in the skin test. […] In Table 14, o signifies vaccine peptides given to each patient.
Vaccine was administered to HLA-A24 positive patients with progressive cancer as following. CypB91 was given to lung cancer patients, ART475 to ovarian cancer patients, and SART3109 to colorectal cancer patients. None of the patients received any steroids or other immunosuppressants from 4 weeks before the beginning of this study to the end of the study. When the skin test was negative, 1 ml of peptide solution (1 mg/ml) was emulsified with the same amount of Freund's incomplete adjuvant (Montanide ISA-51) and injected subcutaneously. In this embodiment, all patients were vaccinated at least three times every two weeks, and up to seventeen times, depending on the patient's wishes.

[2] = tested on: HLA-A24 restricted antigen peptide-specific T cells (CTL precursors) in PBMCs; assay type: cell-based, human; details: for IFN-γ production 1st well / IFN-γ production 2nd well / IFN-γ production 3rd well: HLA-A24 positive cervical cancer patient; for CTL precursor induction assay, response level per well: quadricate assay
[3] = tested on: CD8 positive and HLA-A24/peptide tetramer positive T cells; details: PBMCs of healthy donors sensitized in vitro with EBV peptide, protocol C
Experimental: Recombinant HLA-A2402 a chains containing a biotinated portion and recombinant β2-microglobline were synthesized and used for refolding of soluble HLA molecules in the presence of HLA-A2402 binding peptides. […] Monomer HLA-peptide complex was biotinated with BirA in the a chain, which was isolated form free biotin by gel filtration. The biotinated HLA was tetramerized with 4:1 molar ratio of Strept-avidin-PE. PBMCs sensitized in vitro were re-suspended at the ratio of 5×10^5 cells per 25 μl of phosphate buffer saline (PBS) containing 20% of human AB serum. […] After that, the cells were washed with PBS and analyzed using FACScan. Twenty thousand events were obtained.
More specifically, PBMCs stimulated according to protocol C determined in Example 3 were analyzed by the tetramer assay as described above.

healthy donors = details: in vivo
cancer patients [4] = details: cancer patients (Miyagi et al., Clin. Cancer Res. 7:3950, 2001); cited from earlier work
[5] = colorectal cancer patient 4, after the 3rd vaccination
[6] = after more than 5 doses of cancer vaccine
[7] = before vaccination, response to HIV-C1R-A24 cells subtracted

## TFDYLRSVL [lck486]
Cancer patients [1]; [5]
  peptide-specific DTH reaction: exhibited DTH reaction
[2]; [6]
  IFN-γ production 1st well: 2 pg/well
  IFN-γ production 2nd well: 24 pg/well
  IFN-γ production 3rd well: <0 pg/well
[2]; [7]
  IFN-γ production 1st well: <0 pg/well
  IFN-γ production 2nd well: <0 pg/well
  IFN-γ production 3rd well: 31 pg/well
[2]; HRPC Pt. 1, pre-vaccinated PBMCs
  CTL precursor induction assay, response level per well: E (E: 0.1<p≦0.2 and 100≦net)
[2]; HRPC Pt. 2, pre-vaccinated PBMCs
  CTL precursor induction assay, response level per well: ^b(⊚B)
[2]; HRPC Pt. 3, pre-vaccinated PBMCs
  CTL precursor induction assay, response level per well: (D)
[2]; HRPC Pt. 8, pre-vaccinated PBMCs
  CTL precursor induction assay, response level per well: ⊚A

## RYLRQQLLGI [HIV peptide]
[3]
  ratio of the CD8 positive and HLA-A24/peptide tetramer positive subsets: 0.03%

## AFLRHAAL [ART413, AFLRHAAL]
Healthy donors
  rate of skin reaction occurrence: 95%
  rate of skin reaction occurrence (donors): 38/40
Cancer patients [4]
  allergic skin reaction in pre-vaccination study: induced allergic skin reaction
Cancer patients [1]
  immediate hypersensitivity reaction in skin test: positive in all patients
  type I allergy in skin tests during the course of vaccination: did not induce type I allergy

## KFHRVIKDF [CypB84]
Healthy donors
  rate of skin reaction occurrence: 95%
  rate of skin reaction occurrence (donors): 39/41
Cancer patients [1]; vaccinated patients with lung cancer, Phase I clinical trial
  patients with immediate hypersensitivity reaction in pre-vaccination skin test: 8 of 10

## AYIDFEMKI [SART3315]
Healthy donors
  rate of skin reaction occurrence: 45%
  rate of skin reaction occurrence (donors): 18/40
Cancer patients [4]
  allergic skin reaction in pre-vaccination study: induced allergic skin reaction
Cancer patients [1]
  type I allergy in skin tests during the course of vaccination: did not induce type I allergy

## DFMIQGGDF [CypB91]
Healthy donors
  rate of skin reaction occurrence (donors): no such response
Cancer patients [1]
  immediate hypersensitivity reaction in skin test: positive in all patients
  type I allergy in skin tests during the course of vaccination: induced type I allergy

## DYLRSVLEDF [lck488]
Cancer patients [1]; colorectal cancer patient 1
  peptide-specific DTH reaction: observed after the 6th vaccination
Cancer patients [1]; [5]
  peptide-specific DTH reaction: exhibited DTH reaction
[2]; [6]
  IFN-γ production 1st well: 25 pg/well
  IFN-γ production 2nd well: 99 pg/well
[2]; [7]
  IFN-γ production 1st well: <0 pg/well
  IFN-γ production 2nd well: <0 pg/well
  IFN-γ production 3rd well: 25 pg/well

## TYGPVFMCL [EBV, reference compound]
[2]
  detection of peptide-specific T cells: detected in all 10 donors
  difference in IFN-γ production between target cells sensitized with EB virus peptide and HIV peptide: 2775 pg/mL
  difference in production level of IFN-γ between target cells sensitized with EB virus peptide and HIV peptide: more than 300 pg/ml
[3]
  ratio of the CD8 positive and HLA-A24/peptide tetramer positive subsets: 1.15%

## SYTRLFLIL [SART2899]
Healthy donors
  rate of skin reaction occurrence: 25%
  rate of skin reaction occurrence (donors): 10/40
Cancer patients [4]
  allergic skin reaction in pre-vaccination study: induced allergic skin reaction
Cancer patients [1]
  immediate hypersensitivity reaction in skin test: positive in all patients
